Source: patent US20090042770A1, “Branched Chain Amino Acid Chelate” (priority 2007, published 2009)

Tests used:
[1] = pre-hydrolyzed BSA perfused into jejunum of human subjects (Reicht et al. 1997); cited from earlier work
[2] = Incorporation of leucine products into beverages / aqueous systems (dispersibility, separation, turbidity); type: physicochemical; settings: for ease of dispersion when incorporated into beverages: beverages / aqueous systems

Row | Molecule | rate of absorption [1] | appearance in aqueous solution (separation, turbidity) [2] | ease of dispersion when incorporated into beverages [2]
1 | N[C@@H](CSSC[C@H](N)C(=O)O)C(=O)O [cystine] | 3% |  | 
2 | CC(C)C[C@H](N)C(=O)O [free leucine, (S)-2-amino-4-methylpentanoic acid, reference compound] |  | separation phenomenon | difficult to disperse
3 | calcium leucinate [chelated leucine product] |  | did not separate or increase turbidity | much more easily dispersed
